In brackets after ≈: the same amount, converted by molar mass.
Assays:
collagenase = format: cell-based, calf; details: primary chondrocytes, pre-incubation 6 hours, then IL-1 20 ng/ml 18 hours; 'as low as'
Protocol: Primary chondrocyte cultures were freshly isolated from calf cartilage. The cells were plated at 2.5×10^6 per ml in 100×20 mm culture dishes and incubated in Ham's F12 medium containing 5% FBS overnight at 37° C. The cells were starved in serum-free medium overnight and then treated with anti-microtubule agents at various concentrations for 6 hours. IL-1 (20 ng/ml) was then added to each plate and the plates incubated for an additional 18 hours. Total RNA was isolated by the acidified guanidine isothiocyanate method and subjected to electrophoresis on a denatured gel. Denatured RNA samples (15 μg) were analyzed by gel electrophoresis in a 1% denatured gel, transferred to a nylon membrane and hybridized with the ^32P-labeled collagenase cDNA probe. ^32P-labeled glyceraldehyde phosphate […] (GAPDH) cDNA as an internal standard to ensure roughly equal loading. The exposed films were scanned and quantitatively analyzed with IMAGEQUANT.

C. glabrata = details: manganese compound as enhancer; cited from earlier work
GRE reporter plasmid = details: T cells; cited from earlier work
NFAT = details: cited from earlier work
NFkB and AP1 = details: cited from earlier work
p38 and JNK = details: cited from earlier work
ERK = details: cited from earlier work
TNF-α = details: acute in vivo model; component alone (prednisolone at reduced dose); cited from earlier work
joint swelling = details: chronic / adjuvant model; component alone (prednisolone at reduced dose); cited from earlier work
S. epidermidis C621 = assay: MIC by microtitre broth dilution; format: cell-based; details: Staphylococcus epidermidis; S. epidermidis C621 wt Gram+; Mueller Hinton broth, 37° C., 24 h; read-out: Minimum inhibitory concentration
Protocol: (§1) MIC assays were conducted essentially as described by Amsterdam, D. 1996, “Susceptibility testing of antimicrobials in liquid media”, p. 52-11, in Loman, V., ed. Antibiotics in laboratory medicine, 4th ed. Williams and Wilkins, Baltimore, Md.

[1] = tested on: Candida spp., Aspergillus spp., Sporothrix schenckii, Penicillium marneffei, Malassezia furfur, Cryptococcus neoformans, Trichosporon spp. and …; details: against most Candida spp., Aspergillus spp. and other listed fungi; cited from earlier work
AP-1 = assay: IL-1 induced AP-1 DNA binding activity, gel mobility shift assay; format: cell-based; details: chondrocyte nuclear lysates, pretreated with paclitaxel 10^−7 to 10^−5 M for 24 hours
Protocol: Binding activity was assayed with a radiolabeled human AP-1 sequence probe and gel mobility shift assay. Extracts from chondrocytes untreated or treated with various amounts of paclitaxel (10^−7 to 10^−5 M) followed by IL-1β (20 ng/ml) were incubated with excess probe on ice for 30 minutes, followed by non-denaturing gel electrophoresis. The “com” lane contains excess unlabeled AP-1 oligonucleotide.

collagenase-1 (MMP-1) = assay: IL-1 induced MMP-1 (collagenase) mRNA expression in chondrocytes, Northern blot; format: cell-based
Protocol: (§2) Cells were treated with paclitaxel at various concentrations (10^−7 to 10^−5 M) for 24 hours, then treated with IL-1β (20 ng/ml) for additional 18 hours in the presence of paclitaxel. Total RNA was isolated, and the MMP-1 mRNA levels were determined by Northern blot analysis. The blots were subsequently stripped and reprobed with ^32P-radiolabeled rat GAPDH cDNA, which was used as a housekeeping gene. […] Quantitation of collagenase-1 and stromelysin-expression mRNA levels was conducted. The MMP-1 and MMP-3 expression levels were normalized with GAPDH.

stromelysin (MMP-3) = assay: IL-1 induced MMP-3 (stromelysin) mRNA expression in chondrocytes, Northern blot; format: cell-based
Protocol: as §2

[2] = tested on: Primary human smooth muscle cells; assay: Smooth muscle cell migration assay (Boyden chamber, rhPDGF-BB chemotaxis); format: cell-based; details: chemotaxis in response to rhPDGF-BB 10 ng/ml, 4 hours
Protocol: Primary human smooth muscle cells were starved of serum in smooth muscle cell basal media containing insulin and human basic fibroblast growth factor (bFGF) for 16 hours prior to the assay. For the migration assay, cells were trypsinized to remove cells from flasks, washed with migration media and diluted to a concentration of 2-2.5×10^5 cells/ml in migration media. […] A 100 μL volume of smooth muscle cells (approximately 20,000-25,000 cells) was added to the top of a Boyden chamber assembly (Chemicon QCM CHEMOTAXIS 96-well migration plate). To the bottom wells, the chemotactic agent, recombinant human platelet derived growth factor (rhPDGF-BB) was added at a concentration of 10 ng/ml in a total volume of 150 μL. […] Plates were incubated for 4 hours to allow cell migration.
At the end of the 4-hour period, cells in the top chamber were discarded and the smooth muscle cells attached to the underside of the filter were detached for 30 minutes at 37° C. in Cell Detachment Solution (Chemicon). […] Relative fluorescence units from triplicate wells were averaged after subtracting background fluorescence (control chamber without chemoattractant) and average number of cells migrating was obtained from a standard curve of smooth muscle cells serially diluted from 25,000 cells/well down to 98 cells/well.

[3] = solvent named in the value; cited from earlier work
[4] = particularly in normal saline; cited from earlier work
[5] = tested on: P. aeruginosa PAE/K799 H187; assay: MIC by microtitre broth dilution; format: cell-based; details: Pseudomonas aeruginosa; P. aeruginosa PAE/K799 H187 wt Gram−; Mueller Hinton broth, 37° C., 24 h; read-out: Minimum inhibitory concentration
Protocol: as §1

S. aureus ATCC25923 C622 = assay: MIC by microtitre broth dilution; format: cell-based; details: Staphylococcus aureus; S. aureus ATCC25923 C622 wt Gram+; Mueller Hinton broth, 37° C., 24 h; read-out: Minimum inhibitory concentration
Protocol: as §1

S. pyogenes C721 = assay: MIC by microtitre broth dilution; format: cell-based; details: Streptococcus pyogenes; S. pyogenes C721 wt Gram+; Todd Hewitt broth, 37° C., 24 h; read-out: Minimum inhibitory concentration
Protocol: as §1

[6] = target: protein tyrosine phosphatase 1B (PTP1B) (Homo sapiens, UniProt P18031); details: cited from earlier work
[7] = tested on: phosphatases of regenerating liver (PRL); details: cited from earlier work
endo-exonuclease = details: cited from earlier work
[8] = 10^−5 M paclitaxel, 24 hours pretreatment
[9] = chondrocytes pretreated with paclitaxel for 24 hours

Chain of protein tyrosine phosphatase 1B (PTP1B) (P18031 whole entry): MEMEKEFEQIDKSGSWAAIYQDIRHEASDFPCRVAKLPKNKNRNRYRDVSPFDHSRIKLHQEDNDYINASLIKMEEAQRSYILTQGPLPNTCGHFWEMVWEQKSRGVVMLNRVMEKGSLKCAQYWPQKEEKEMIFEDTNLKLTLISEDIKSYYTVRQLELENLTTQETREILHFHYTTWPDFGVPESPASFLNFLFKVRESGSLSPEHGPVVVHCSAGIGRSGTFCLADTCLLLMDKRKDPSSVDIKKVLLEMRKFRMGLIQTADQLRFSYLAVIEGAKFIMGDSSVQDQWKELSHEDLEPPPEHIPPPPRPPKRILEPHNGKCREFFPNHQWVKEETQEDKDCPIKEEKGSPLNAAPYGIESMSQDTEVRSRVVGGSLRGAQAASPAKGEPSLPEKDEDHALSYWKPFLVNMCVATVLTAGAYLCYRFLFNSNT

CCOC(=O)CN [glycine ethyl ester]
lowest concentration that prevented IL-1-induced collagenase expression (collagenase): 100 nM

[F][Al]([F])[F] [AIF3]
lowest concentration that prevented IL-1-induced collagenase expression (collagenase): 100 nM

[2H]O[2H] [deuterium oxide]
lowest concentration that prevented IL-1-induced collagenase expression (collagenase): 100 nM

CC[C@H](C)C[C@H](C)CCCCCCCCC(=O)N[C@H]1C[C@@H](O)[C@@H](NCCN)NC(=O)[C@@H]2[C@@H](O)CCN2C(=O)[C@H]([C@H](O)CCN)NC(=O)[C@H]([C@H](O)[C@@H](O)c2ccc(O)cc2)NC(=O)[C@@H]2C[C@@H](O)CN2C(=O)[C@H]([C@@H](C)O)NC1=O [caspofungin]
anti-fungal activity against C. glabrata in combination with a manganese compound (C. glabrata): enhances

Clc1ccc2c(c1)C(N1CCNCC1)=Nc1ccccc1O2 [amoxapine]
potentiation of prednisolone's ability to transactivate a GRE reporter plasmid (GRE reporter plasmid): does not potentiate | effect on NFAT activation, translocation and transactivation (NFAT): block | effect on NFkB and AP1 activation (NFkB and AP1): partially inhibits | effect on p38 and JNK activation (p38 and JNK): Inhibition | effect on ERK activation (ERK): unaffected | effect of the individual components alone on TNF-α production (TNF-α): modest or no benefit | effect of the individual components alone on joint swelling (joint swelling): modest or no benefit

CC[C@@]1(O)C(=O)OCc2c1cc1n(c2=O)Cc2cc3ccccc3nc2-1 [camptothecin]
MIC (S. epidermidis C621): 100 µM (≈ 34.8 µg/mL)

CN(C/C=C/C#CC(C)(C)C)Cc1cccc2ccccc12.Cl [terbinafine]
anti-fungal activity against C. glabrata in combination with a manganese compound (C. glabrata): enhances | in vitro anti-fungal activity [1]: has activity

epothilone
lowest concentration that prevented IL-1-induced collagenase expression (collagenase): 100 nM

CC(=O)O[C@H]1C(=O)[C@@]2(C)[C@H]([C@H](OC(=O)c3ccccc3)[C@]3(O)C[C@H](OC(=O)[C@H](O)[C@@H](NC(=O)c4ccccc4)c4ccccc4)C(C)=C1C3(C)C)[C@]1(OC(C)=O)CO[C@@H]1C[C@@H]2O [paclitaxel]
IL-1 induced AP-1 binding activity to oligonucleotides (AP-1): decreased | collagenase mRNA levels (IL-1 induced) (collagenase-1 (MMP-1); [8]): complete inhibition | collagenase mRNA levels (IL-1 induced) (collagenase-1 (MMP-1); [9]): significantly reduced | concentration inhibiting collagenase expression in vitro (collagenase-1 (MMP-1); chondrocytes, IL-1 induced): 10^−6 M | stromelysin mRNA levels (IL-1 induced) (stromelysin (MMP-3); [8]): complete inhibition | stromelysin mRNA levels (IL-1 induced) (stromelysin (MMP-3); [9]): significantly reduced | concentration inhibiting stromelysin expression in vitro (stromelysin (MMP-3); chondrocytes, IL-1 induced): 10^−6 M | IC50 [2]: 0.76 nM

NC(=O)c1ncn([C@@H]2O[C@H](CO)[C@@H](O)[C@H]2O)n1 [Ribavirin, ribavirin]
solubility, in words [3]: only slightly soluble in alcohol

OC(Cn1cncn1)(Cn1cncn1)c1ccc(F)cc1F [fluconazole]
anti-fungal activity against C. glabrata in combination with a manganese compound (C. glabrata): enhances

ethylene glycol bis-(succinimidylsuccinate)
lowest concentration that prevented IL-1-induced collagenase expression (collagenase): 100 nM

N=C(N)c1ccc(OCCCCCOc2ccc(C(=N)N)cc2)cc1 [Pentamidine isethionate, pentamidine isethionate]
solubility, in words [3]: soluble in water and glycerin and insoluble in ether, acetone, and chloroform

C[C@@H]1[C@H](O)[C@@H](C)/C=C/C=C/C=C/C=C/C=C/C=C/C=C/[C@H](O[C@@H]2O[C@H](C)[C@@H](O)[C@H](N)[C@@H]2O)C[C@@H]2O[C@](O)(C[C@@H](O)C[C@@H](O)[C@H](O)CC[C@@H](O)C[C@@H](O)CC(=O)O[C@H]1C)C[C@H](O)[C@H]2C(=O)O [Amphotericin B, amphotericin B]
solubility, in words [3]: poorly water soluble | stability in solution [4]: unstable in solution

N#CC1=C(N)Oc2c(ccc3ccccc23)C1c1cccc([N+](=O)[O-])c1 (stereo not shown) [LY290181]
lowest concentration that prevented IL-1-induced collagenase expression (collagenase): 100 nM

Nc1ccc(/N=N/c2ccccc2)c(N)n1 [Phenazopyridine base, phenazopyridine]
solubility, in words [3]: slightly soluble in water and alcohol

hexylene glycol
lowest concentration that prevented IL-1-induced collagenase expression (collagenase): 100 nM

C[N+]1(CCCCC[N+]2(C)CCCC2)CCCC1 [Pentolinium ditartrate, pentolinium]
solubility, in words [3]: highly soluble in water

O=c1[nH]cc(F)c(=O)[nH]1 [5-fluorouracil]
MIC [5]: 10 µM (≈ 1.3 µg/mL) | MIC (S. aureus ATCC25923 C622): 0.1 µM (≈ 0.013 µg/mL) | MIC (S. epidermidis C621): 0.1 µM (≈ 0.013 µg/mL) | MIC (S. pyogenes C721): 100 µM (≈ 13 µg/mL)

NNCCc1ccccc1 [Phenelzine, phenelzine]
solubility, in words [3]: highly soluble in water and very poorly soluble in alcohol

COc1c2occc2cc2ccc(=O)oc12 [Methoxsalen, methoxsalen]
solubility, in words [3]: very poorly soluble in water, slightly soluble in alcohol, and readily soluble in propylene glycol

CC(=O)N1CCN(c2ccc(OC[C@@H]3CO[C@@](Cn4ccnc4)(c4ccc(Cl)cc4Cl)O3)cc2)CC1 (racemic) [ketoconazole]
solubility, in words [3]: essentially insoluble in water

Nc1ncnc2c1ccn2[C@@H]1O[C@H](CO)[C@@H](O)[C@H]1O [tubercidin]
lowest concentration that prevented IL-1-induced collagenase expression (collagenase): 100 nM

CN(C)/N=N/c1[nH]cnc1C(N)=O [Dacarbazine, dacarbazine]
solubility, in words [3]: poorly soluble in water and ethanol

CCC(C)n1ncn(-c2ccc(N3CCN(c4ccc(OC[C@H]5CO[C@](Cn6cncn6)(c6ccc(Cl)cc6Cl)O5)cc4)CC3)cc2)c1=O (mixture of isomers) [itraconazole]
anti-fungal activity against C. glabrata in combination with a manganese compound (C. glabrata): enhances

N=C(N)c1ccc(OCCCCCOc2ccc(C(=N)N)cc2)cc1 [pentamidine]
inhibition of protein tyrosine phosphatase 1B (PTP1B) [6]: effective inhibitor | inhibition of the oncogenic phosphatases of regenerating liver (PRL) [7]: potent inhibitor | inhibition of the activity of endo-exonuclease (endo-exonuclease): inhibit

Source: patent US20070198063A1, “Electrical devices and anti-scarring drug combinations” (priority 2005, published 2007)
